The values that follow come from patent US7514245B2, “Method for producing chiral α-hydroxycarboxylic acids by enzymatic hydrolysis of chiral cyanohydrins” (DSM Fine Chemicals Austria NFG GmbH & Co. KG, priority 2003, dated 2009).

This experiment concerns the target T1, Rhodococcus erythropolis NCIMB 11540 amidase (Rhodococcus erythropolis, UniProt P22984).
T1 construct: made in house; host or cells: E. coli B BL21 (plasmid pMS470-33/3/1/11), crude lysate
T1 sequence (P22984 1-521): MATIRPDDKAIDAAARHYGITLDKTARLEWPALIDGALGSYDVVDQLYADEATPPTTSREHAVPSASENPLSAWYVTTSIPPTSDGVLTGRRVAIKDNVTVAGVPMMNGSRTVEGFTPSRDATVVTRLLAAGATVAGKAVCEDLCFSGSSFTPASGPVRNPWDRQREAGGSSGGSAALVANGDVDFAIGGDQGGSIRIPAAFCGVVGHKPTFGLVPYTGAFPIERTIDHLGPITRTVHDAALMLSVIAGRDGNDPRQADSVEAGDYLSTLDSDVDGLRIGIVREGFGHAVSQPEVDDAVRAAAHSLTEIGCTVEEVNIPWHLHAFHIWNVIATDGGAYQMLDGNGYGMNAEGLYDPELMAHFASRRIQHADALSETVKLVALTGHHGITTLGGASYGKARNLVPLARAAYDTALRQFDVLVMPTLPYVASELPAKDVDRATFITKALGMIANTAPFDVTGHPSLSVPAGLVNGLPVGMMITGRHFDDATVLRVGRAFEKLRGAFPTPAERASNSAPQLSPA
Put plainly: Determination of amidase activity of crude lysates with acetamide. The class given is biochemical. The note with it: pMS470-33/3/1/11 lysate; acetamide (40 mM) in PBS buffer at 37° C.; indophenolblue method. The protocol:
The E. coli B BL21 cells transformed by pMS470-33/3/1/11 were isolated on LB-ampicillin plates and an ONC of 100 ml of LB-ampicillin medium was inoculated with an individual colony. On the next morning a main culture consisting of 250 ml of SOC-ampicillin medium was inoculated into a 1000 ml chicane flask to an OD600 of 0.01 to 0.03 (Beckmann Photometer). […] After reaching the induction density (OD600=1 Beckmann Photometer), the cultures were induced by adding IPTG to a concentration of 0.3 mM. After an induction time of 16 h, the cells were harvested (centrifugation 3000·g, 10 min) and washed with sodium phosphate buffer (0.1 M, pH=7). The pellet produced was resuspended to approximately 5 ml total volume in wash buffer and disintegrated using an ultrasound probe (BRANSON Sonifier 250, 60% power setting, constant sonication; 5 times 30 s each with 1 min pause for cooling) with constant cooling to completeness (visual control of completeness under the microscope). […]
[…] The resultant blue coloration, after dilution of all samples and standards 1:10) with water, was quantified in the spectrophotometer (Perkin Elmer UV/VIS Spectrometer Lambda Bio) at 640 nm. By correlating the increase in blue coloration over time with the extinction values of the standards, the activity (μmol of released ammonium per minute) could be back-calculated.

Regarding `CC(N)=O` [acetamide], the “activity of crude lysates” value is on record as “approximately 75 U/ml”.
